In US20260200982A1, “HER RECEPTOR DERIVED PEPTIDES AND METHODS OF USE THEREOF” (Ramot at Tel-Aviv University Ltd., priority 2022, published 2026):
Bridges are numbered along the chain shown (N, C = ends). Primed or numbered codes have the meaning given here. Where no end group is shown, it is not given here. [ ]: non-standard residue; d: D form. The star is where a group is joined. FITC′ = fluorescein isothiocyanate; Myristoyl = CCCCCCCCCCCCCC(=O)*; S5 = C=CCCC[C@](C)(N)C(=O)O

Columns and labels:
Assay type in all cases: cell-based, human
[1] = test system: non-cancerous (MCF10A) breast cell line; assay: Methylene blue viability assay, MCF10A; conditions: 72 hours, 10 μM peptide; FIGS. 6A-B
Excerpt: (§1) Cell lines—Human breast cancer cell lines SKBR3 [Peles E et al. EMBO J. (1993) 12(3):961-71] and MCF7 [Faigenbloom L et al., Mol Syst Biol. (2015) 11(12):845] and human glioblastoma U87 [Goldberg L et al. Cancer Res. (2006) 66(24):11709-17] cell line, as well as Rat-1 fibroblast cells and H-Ras-transformed Rat-1 cells (EJ cells) [Marom M et al. J Biol Chem. (1995) 270(38):22263-70] and human Panc-1 and MIA PaCa-2 pancreatic cell lines (Rak R et al. Oncoscience. 2014 1(1):39-48; Weisz B et al. Oncogene (1999) 18, 2579±2588) were all grown in Dulbecco's modified Eagle's medium (DMEM; Biological Industries, Beithaemek, Israel). Human colorectal cancer cell lines DLD-1 (ATTC Cat No. CCL-221), HCT-116 (ATTC Cat No. CCL-247) and LNCaP prostate cancer cells were grown in Roswell Park Memorial Institute 1640 (RPMI 1640) medium and McCoy's 5A media, respectively (Sigma-Aldrich). All media were supplemented with antibiotics and 10% heat-inactivated fetal bovine serum (FBS; Gibco). Human breast cell line MCF10A [Bott A et al. Oncotarget. (2017) 8(27):43897-43914] was grown in Dulbeco's Modified Eagle's Medium/Nutrient Mixture F-12 HAM medium (DMEM F-12 HAM; Sigma-Aldrich), supplemented with antibiotics, 5% inactivated horse serum (HS; Invitrogen), 2 mM L-glutamine (Biological Industries, Beithaemek, Israel), 0.1 μg/ml cholera toxin (Sigma-Aldrich), 0.5 μg/ml hydrocortisone (Sigma-Aldrich), 10 μg/ml insulin (Biological Industries, Beithaemek, Israel) and 2 ng/ml EGF (R&D Systems). Cells were incubated at 37° C. in 5% CO2 in air, and the medium was changed every 3-4 days. Cells were passaged in trypsin/disodium ethylenediaminetetraacetic acid (Biological Industries, Beithaemek, Israel) when confluency reached 70%. One day prior to treatment the cells were plated at ~50% confluency in a medium supplemented with 10% FBS or 5% HS, accordingly.
(§2) Methylene blue viability assay—Cells were plated in 96-wells plates at cell densities of 1.5×10^3 (EJ, DLD-1), 3×10^3 (Rat-1, HCT-116, U87), 5×10^3 (SKBR3, MCF7) and 6×10^3 (MCF10A) cells/well. On the following day, cells were treated as indicated, and grown for 72 hours. Cell number determination was performed as described previously. IC-50 values were calculated using a non-linear regression model (logarithmic inhibitor vs. normalized response-variable slope) with the GraphPad Prism 6 software.

MCF7 breast cancer cells = conditions: 72 hours
Excerpt: as §1
as §2, with “On the following day, cells were treated as indicated, and grown for 72 hours.” left out

[2] = test system: SKBR3 breast cancer cells; conditions: 80 μM peptide for 72 hours; FIG. 4A
Excerpt: as §1
as §2, with “On the following day, cells were treated as indicated, and grown for 72 hours.” left out

DLD-1 cells = assay: Colony formation assay, DLD-1; conditions: 20 μM, 72 hours, FIG. 12
Description: Colony formation assay—Cells were plated onto 12-well plate (6×10^4 cells/well) and treated with either PBS or myr-NLS at the IC50 concentration for 3 days. Cells were collected and replated in 10-cm plates (at 3 dilutions of 1:10, 1:20 and 1:40). After 7-14 days when visible and yet separated colonies were formed, the cells were fixed with 0.1% acetic acid in PBS, and stained with 0.4% crystal violet in 0.1% acetic acid. Total colonies area was calculated using the ImageJ program.
In addition, a colony formation assay was conducted to further examine the anti-tumor effect of the myr-NLS (SEQ ID NO: 5), myr-NLS2 (SEQ ID NO: 15) and myr-NLS4 (SEQ ID NO: 17) peptides. To this end, DLD-1 cells were treated or untreated for 72 hours with 20 μM of the myr-peptides. Cells were then seeded at the same dilutions in new plates until colonies were formed.

Myr-RRRHIVRKRT(S5)RRL(S5) (Myristoyl-RRRHIVRKRT[S5]RRL[S5]; staple 11-15) [mN11-15]
viability of non-cancerous MCF10 breast cells [1]: had no effect | MCF7 cell viability (MCF7 breast cancer cells; 10 μM peptide, FIGS. 6A-B): decreased MCF7 cell viability

RRRRRRRRHIVRKRTLRRLL (R-NLS peptide)
viability of SKBR3 breast cancer cells [2]: significantly reduced viability

Myr-KRRQQKIRKYTMRRLL-OH (Myristoyl-KRRQQKIRKYTMRRLL-OH; SMILES CCCCCCCCCCCCCC(=O)N[C@@H](CCCCN)C(=O)N[C@@H](CCCNC(=N)N)C(=O)N[C@@H](CCCNC(=N)N)C(=O)N[C@@H](CCC(N)=O)C(=O)N[C@@H](CCC(N)=O)C(=O)N[C@@H](CCCCN)C(=O)N[C@H](C(=O)N[C@@H](CCCNC(=N)N)C(=O)N[C@@H](CCCCN)C(=O)N[C@@H](Cc1ccc(O)cc1)C(=O)N[C@H](C(=O)N[C@@H](CCSC)C(=O)N[C@@H](CCCNC(=N)N)C(=O)N[C@@H](CCCNC(=N)N)C(=O)N[C@@H](CC(C)C)C(=O)N[C@@H](CC(C)C)C(=O)O)[C@@H](C)O)[C@@H](C)CC) [myr-NLS2]
colony formation (total colonies area) (DLD-1 cells): fewer and smaller colonies

Myr-RRRHIVRK(FITC)RTLRRLL (Myristoyl-RRRHIVRK(FITC′)RTLRRLL) [myr-NLS-FITC]
effect of FITC-conjugation on cell viability activity compared to myr-NLS (MCF7 breast cancer cells; MCF7, FIG. 4E): did not affect myr-NLS activity
